Experiments:
lean Zucker (fa/+) rats = experiment: Cataract formation in lean Zucker control rats fed genistein in chow; format: in vivo, rat; details: lean Zucker rats, 0, 75, 150 or 300 mg Genistein/kg chow, six months
Description: (§1) Thirty pair of litter mates of Zucker rats, i.e., thirty male retired breeder Zucker diabetic fatty (ZDF, fa/fa) rats and thirty male retired breeder lean Zucker (fa/+) rats, were obtained (Genetic Models, Inc., Indianapolis, Ind.). The animals were treated in accordance with The Association for Research in Vision and Ophthalmology (ARVO) Statement for the Use of Animals in Ophthalmic and Vision Research. The average blood glucose value was more than 500 mg/dl for the Zucker diabetic fatty rats and 120 mg/dl for the control lean rats as measured by glucose oxidase assay at the time of death (Danis et al. (1993), supra).
(§2) Zucker diabetic fatty rats were divided into four groups and fed Purina 5008 rat chow containing varying concentrations of genistein: 0 mg/kg chow, 75 mg/kg chow, 150 mg/kg chow and 300 mg/kg chow. Cataract formation was assessed after six months of treatment. The extent of cataract formation was determined after dilating pupils with phenylephrine (2.5%) and Tropicamide (1%) in rats under general anesthesia resulting from intraperitoneal injections of ketamine (40 mg/kg) and xylazine (4 mg/kg). Disease progression was categorized as total cataract, partial cataract (mainly minimal posterior subcapsular cataract), or no cataract.
Zucker lean rats were also divided into 4 groups and fed Purina 5008 chow containing 0, 75, 150 or 300 mg Genistein/ kg chow. […]

[1] = Weight of the ovaries and the uterus after oral genistein; format: in vivo; details: oral administration, female rats
Excerpt: (§3) An advantage of genistein is that it is very safe and efficacious. […] Also, no effect of orally administered genistein was found with respect to the weight of the ovaries and the uterus in female rats.

retina = experiment: Retinal toxicity by electroretinography after oral genistein; format: in vivo; details: 75 mg/kg/day to 300 mg/kg/day, six months, Zucker diabetic fatty rats
Excerpt: as §3

[2] = test system: Zucker diabetic fatty (ZDF, fa/fa) rats; experiment: Cataract formation in Zucker diabetic fatty rats fed genistein in chow for six months; format: in vivo, rat
Description: as §1, §2

[3] = Food intake and body weight after oral genistein; format: in vivo; details: oral administration, male and female rats
Excerpt: as §3

O=c1c(-c2ccc(O)cc2)coc2cc(O)cc(O)c12 [genistein, 5,7-dihydroxy-3-(4-hydroxyphenyl)-4H-1-benzopyran-4-one]
Cataracts in lean control rats (lean Zucker (fa/+) rats): not present
Effect on weight of the ovaries and the uterus [1]: no effect
Toxicity to the retina as measured by electroretinography (retina): nontoxic to the retina
Partial Cataract (number of rats) ([2]; 75 mg/kg chow, n = 7): 3
Total Cataract (number of rats) ([2]; 75 mg/kg chow, n = 7): 4
No Cataract (number of rats) ([2]; 150 mg/kg chow, n = 8): 2
Partial Cataract (number of rats) ([2]; 150 mg/kg chow, n = 8): 2
Total Cataract (number of rats) ([2]; 150 mg/kg chow, n = 8): 4
Partial Cataract (number of rats) ([2]; 300 mg/kg chow, n = 8): 3
Total Cataract (number of rats) ([2]; 300 mg/kg chow, n = 8): 5
Inhibition of cataract formation ([2]; 75-300 mg/kg chow): significantly inhibits cataract formation
Effect on body weight [3]: no effect
Effect on food intake [3]: no effect

From patent US6399655B1, “Method for the prophylactic treatment of cataracts” (Johns Hopkins University, School of Medicine, priority 1998, dated 2002)
